Test [1] addresses T1, GPIb (Homo sapiens, UniProt P07359).
T1 construct: endogenous in cells; host or cells: fresh or formalin-fixed platelets
The experiment in a line: Inhibition of ristocetin-induced binding of 125I-vWF to formalin-fixed platelets by peptides. The note with it: formalin-fixed platelets 1 x 10¹¹/liter, 125I-vWF 5 micrograms/ml, ristocetin 1.0 mg/ml, 30 minutes room temperature; read-out: IC₅₀ (concentration of peptide which inhibited binding by 50%). On the procedure:
To test the inhibition of ristocetin-induced binding of vWF to platelets by peptides, formalin-fixed platelets were used at a final concentration of 1 x 10¹¹/liter. Peptides to be tested were then added at various concentrations. One third final volume of vWF deficient plasma was then added followed by ¹²⁵I-vWF a final concentration of 5 micrograms/ml. Ristocetin was then added at a concentration of 1.0 mg/ml. After incubation for 30 minutes at room temperature bound and free ligand were separated by centrifuging 50 microliters of the mixture through 300 microliters of 20% sucrose at 12,000 x g for 4 minutes. The platelet pellet was then separated from the rest of the mixture to determine platelet-bound radioactivity. Nonspecific binding was defined as the residual binding of ¹²⁵I-vWF in the presence of a 50-fold excess of unlabeled vWF but in the absence of any peptides.
Percent inhibition with a given peptide was calculated by […]. The IC₅₀'s (concentration of peptide which inhibited binding by 50%) for the peptides tested were as follows: […]

Test [2] addresses T1, GPIb. Kind of test: Inhibition of 125I-asialo-vWF binding to fresh platelets by peptides. The protocol:
To test the inhibitions of asialo-vWF binding to platelets, fresh platelets were used. These were prepared by drawing blood into 11 millimolar trisodium citrate and 2 millimolar EDTA. Platelet-rich plasma was then prepared by differential centrifugation. The platelet count was then adjusted to 1 x 10¹¹/liter. Peptides were then added to various concentrations and ¹²⁵I-asialo-vWF was then added at a final concentration of 5 micrograms/ml. After incubation for 30 minutes at room temperature bound and free ligand were separated by centrifuging 50 microliters of the mixture through 300 microliters of 20% sucrose at 12,000 x g for 4 minutes. The platelet pellet was then separated from the rest of the mixture to determine platelet-bound radioactivity. Non-specific binding was defined as the residual binding of ¹²⁵I-asialo-vWF in the presence of a 50-fold excess of unlabeled vWF but in the absence of any peptides.
Percent inhibition with a given peptide was calculated by dividing the specific cpm obtained when various concentrations of peptide were added by the specific cpm in the absence of peptide. The IC₅₀'s (concentration of peptide which inhibited binding by 50%) for the peptides tested were as follows: […]

The mark [3] stands for this setting: fresh platelets 1 x 10¹¹/liter, 125I-asialo-vWF 5 micrograms/ml, 30 minutes room temperature, read-out: IC₅₀ (concentration of peptide which inhibited binding by 50%).

Consider 5 molecules from patent EP0317278A2, “Proteolytic fragments and synthetic peptides that block the binding of von Willebrand factor to the platelet membrane glycoprotein Ib” (SCRIPPS CLINIC AND RESEARCH FOUNDATION, priority 1987, dated 1989).

Where a SMILES comes first, the peptide text is derived from it. Where no end group is shown, it is not given here.

T1 sequence (P07359 17-652): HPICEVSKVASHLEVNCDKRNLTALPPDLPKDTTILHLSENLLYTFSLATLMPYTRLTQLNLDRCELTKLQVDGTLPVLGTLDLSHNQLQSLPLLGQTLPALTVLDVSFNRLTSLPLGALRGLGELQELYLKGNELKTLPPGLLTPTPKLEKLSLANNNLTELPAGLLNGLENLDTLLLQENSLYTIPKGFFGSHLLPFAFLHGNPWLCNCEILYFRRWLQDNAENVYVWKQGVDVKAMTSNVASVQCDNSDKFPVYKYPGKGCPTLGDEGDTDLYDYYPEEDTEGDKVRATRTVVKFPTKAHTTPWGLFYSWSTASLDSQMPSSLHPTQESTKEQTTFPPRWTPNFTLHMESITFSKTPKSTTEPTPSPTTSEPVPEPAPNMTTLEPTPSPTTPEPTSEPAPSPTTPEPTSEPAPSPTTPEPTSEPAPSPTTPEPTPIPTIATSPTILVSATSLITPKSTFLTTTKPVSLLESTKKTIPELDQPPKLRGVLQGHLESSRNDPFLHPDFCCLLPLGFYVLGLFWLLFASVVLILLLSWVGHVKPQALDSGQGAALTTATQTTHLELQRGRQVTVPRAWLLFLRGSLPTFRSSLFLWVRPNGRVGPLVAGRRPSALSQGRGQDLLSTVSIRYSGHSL
T1 sequence (P13224 26-206 partner): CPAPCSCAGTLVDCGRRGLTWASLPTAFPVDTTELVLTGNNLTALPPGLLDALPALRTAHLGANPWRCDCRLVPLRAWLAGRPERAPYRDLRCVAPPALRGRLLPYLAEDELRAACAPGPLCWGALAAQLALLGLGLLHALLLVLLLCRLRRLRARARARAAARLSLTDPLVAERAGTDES
T1 sequence (P14770 17-177 partner): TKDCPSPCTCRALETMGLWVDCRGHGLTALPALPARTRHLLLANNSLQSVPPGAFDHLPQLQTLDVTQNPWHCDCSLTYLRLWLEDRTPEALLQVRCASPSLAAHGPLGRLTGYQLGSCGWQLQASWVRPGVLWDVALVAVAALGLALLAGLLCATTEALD

Consider KRKRKR [(KR)₃], for which the IC50 on GPIb [1] came out at 120 µM; at GPIb [2] (setting [3]) it was 23 µM.

For RRRRRRRRGDV [(R)₈GDV], the IC50 stood at 6 µM on GPIb [1] and 3.5 µM on GPIb [2].

As to YRGDV [YRGDV, reference compound], on GPIb [1], the IC50 is over 600 µM.

Consider KRKRKRKRGDV [(KR)₄GDV], for which the results for the IC50 at GPIb [1] and on GPIb [2] (setting [3]) were 16 µM and 15 µM, respectively.

On to `N=C(N)NCCC[C@H](NC(=O)[C@H](CCCCN)NC(=O)[C@H](CCCNC(=N)N)NC(=O)[C@@H](N)CCCCN)C(=O)O` [(KR)₂] (H-KRKR-OH), for which, at GPIb [1], the IC50 was 200 µM.
